Entries after “also recorded” stand apart in the source; their conditions may differ. Like-named read-outs stand apart in the source and are kept apart here.
Assays:
[1] = biological target: T1, CFTR (Homo sapiens, UniProt P13569); format: cell-based; conditions: for Effect of CFTR inhibitors on forskolin-stimulated swelling: Example 2, 3 hours pre-incubation, 50 μM
Target sequence in this assay (P13569 whole entry, looked up): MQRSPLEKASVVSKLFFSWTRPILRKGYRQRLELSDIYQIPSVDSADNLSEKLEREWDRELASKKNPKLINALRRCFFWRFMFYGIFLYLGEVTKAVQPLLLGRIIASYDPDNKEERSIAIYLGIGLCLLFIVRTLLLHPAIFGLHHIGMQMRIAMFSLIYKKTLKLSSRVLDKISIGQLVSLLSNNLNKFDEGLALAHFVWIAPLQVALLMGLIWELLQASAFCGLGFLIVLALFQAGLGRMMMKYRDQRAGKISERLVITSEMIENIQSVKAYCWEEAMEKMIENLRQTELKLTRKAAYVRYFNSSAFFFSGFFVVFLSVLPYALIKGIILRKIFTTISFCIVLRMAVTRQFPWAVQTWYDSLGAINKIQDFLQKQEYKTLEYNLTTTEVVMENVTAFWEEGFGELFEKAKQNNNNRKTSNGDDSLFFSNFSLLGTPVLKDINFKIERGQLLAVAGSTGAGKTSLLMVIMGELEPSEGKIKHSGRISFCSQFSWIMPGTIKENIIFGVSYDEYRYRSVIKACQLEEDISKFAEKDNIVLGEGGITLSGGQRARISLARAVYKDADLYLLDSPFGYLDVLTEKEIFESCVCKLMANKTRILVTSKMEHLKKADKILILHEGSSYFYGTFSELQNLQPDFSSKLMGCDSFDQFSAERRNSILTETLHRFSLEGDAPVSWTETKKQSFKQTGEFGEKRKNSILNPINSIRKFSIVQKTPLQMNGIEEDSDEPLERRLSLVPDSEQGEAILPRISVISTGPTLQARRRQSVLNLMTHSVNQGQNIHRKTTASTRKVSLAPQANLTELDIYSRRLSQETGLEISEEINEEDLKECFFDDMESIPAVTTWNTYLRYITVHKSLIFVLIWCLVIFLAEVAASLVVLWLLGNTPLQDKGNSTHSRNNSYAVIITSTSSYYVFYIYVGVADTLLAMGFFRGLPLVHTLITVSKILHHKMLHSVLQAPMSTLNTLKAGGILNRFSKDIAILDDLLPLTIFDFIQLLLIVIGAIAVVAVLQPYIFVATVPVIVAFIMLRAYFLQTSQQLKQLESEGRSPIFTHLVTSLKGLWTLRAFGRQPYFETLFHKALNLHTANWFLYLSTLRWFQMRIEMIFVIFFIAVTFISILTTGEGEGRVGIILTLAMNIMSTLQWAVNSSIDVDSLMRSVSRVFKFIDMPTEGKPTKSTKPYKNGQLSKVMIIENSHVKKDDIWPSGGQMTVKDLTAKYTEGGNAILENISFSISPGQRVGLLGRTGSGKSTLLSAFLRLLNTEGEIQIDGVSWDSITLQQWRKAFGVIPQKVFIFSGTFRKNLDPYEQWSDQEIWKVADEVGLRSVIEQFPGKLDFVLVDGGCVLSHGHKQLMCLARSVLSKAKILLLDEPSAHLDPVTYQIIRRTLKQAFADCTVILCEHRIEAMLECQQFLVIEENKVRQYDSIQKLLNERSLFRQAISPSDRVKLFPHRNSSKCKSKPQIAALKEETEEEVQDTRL

[2] = biological target: T1, CFTR; conditions: cited from earlier work; for Ki: CFTR blocker, read-out: Potency: Ki
Target sequence in this assay (P13569 whole entry): as the sequence (P13569 whole entry, looked up) above

[3] = cited from earlier work
[4] = tested on: CFTR; conditions: CFTR corrector, cited from earlier work; for EC50: read-out: Potency: EC50
[5] = tested on: CFTR; conditions: cited from earlier work
[6] = tested on: CFTR; assay: Organoid swelling on compound addition (organoid origin not stated; FIG. 7, FIG. 32); format: cell-based
[7] = biological target: CFTR (Mus musculus, UniProt P26361); assay: Forskolin-induced swelling (FIS) of murine wild-type small intestinal organoids; conditions: live cell microscopy
Sequence of CFTR (Mus musculus, UniProt P26361) (P26361 whole entry): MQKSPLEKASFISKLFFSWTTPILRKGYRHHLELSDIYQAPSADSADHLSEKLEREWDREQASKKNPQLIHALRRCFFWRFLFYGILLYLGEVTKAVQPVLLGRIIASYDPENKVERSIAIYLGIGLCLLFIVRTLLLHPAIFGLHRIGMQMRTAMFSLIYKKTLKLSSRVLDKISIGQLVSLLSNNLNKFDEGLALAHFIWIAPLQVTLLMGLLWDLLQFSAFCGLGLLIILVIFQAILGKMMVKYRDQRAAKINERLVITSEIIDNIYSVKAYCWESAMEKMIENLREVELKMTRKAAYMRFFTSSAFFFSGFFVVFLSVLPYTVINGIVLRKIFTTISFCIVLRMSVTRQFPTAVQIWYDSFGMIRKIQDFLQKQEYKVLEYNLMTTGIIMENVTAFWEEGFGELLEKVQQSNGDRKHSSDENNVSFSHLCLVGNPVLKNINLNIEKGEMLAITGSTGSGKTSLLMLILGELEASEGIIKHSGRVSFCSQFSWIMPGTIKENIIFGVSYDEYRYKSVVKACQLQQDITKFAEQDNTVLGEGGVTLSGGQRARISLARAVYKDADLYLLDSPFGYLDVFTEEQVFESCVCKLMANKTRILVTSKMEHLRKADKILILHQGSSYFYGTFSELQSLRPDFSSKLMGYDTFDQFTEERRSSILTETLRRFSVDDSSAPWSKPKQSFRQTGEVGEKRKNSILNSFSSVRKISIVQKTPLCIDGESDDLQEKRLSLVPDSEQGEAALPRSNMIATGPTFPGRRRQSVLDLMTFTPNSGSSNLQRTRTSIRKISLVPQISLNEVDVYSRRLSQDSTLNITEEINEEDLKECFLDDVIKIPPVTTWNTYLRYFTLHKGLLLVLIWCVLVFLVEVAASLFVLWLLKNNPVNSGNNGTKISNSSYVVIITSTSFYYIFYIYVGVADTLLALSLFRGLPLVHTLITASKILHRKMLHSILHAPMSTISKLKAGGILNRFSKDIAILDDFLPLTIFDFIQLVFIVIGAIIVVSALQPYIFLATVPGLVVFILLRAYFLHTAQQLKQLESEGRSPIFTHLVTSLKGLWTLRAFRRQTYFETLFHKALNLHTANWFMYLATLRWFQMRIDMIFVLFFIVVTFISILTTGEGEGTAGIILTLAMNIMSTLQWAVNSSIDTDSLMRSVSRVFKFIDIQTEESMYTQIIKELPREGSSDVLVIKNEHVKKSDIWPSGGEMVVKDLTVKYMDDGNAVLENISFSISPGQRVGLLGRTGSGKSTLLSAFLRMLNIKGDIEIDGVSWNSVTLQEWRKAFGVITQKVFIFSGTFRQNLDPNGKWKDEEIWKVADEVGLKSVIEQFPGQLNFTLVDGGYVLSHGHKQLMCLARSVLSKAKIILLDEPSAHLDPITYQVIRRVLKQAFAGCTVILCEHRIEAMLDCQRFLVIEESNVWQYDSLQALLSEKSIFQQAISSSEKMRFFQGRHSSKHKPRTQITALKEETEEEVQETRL

[8] = human healthy control organoids

For `O=C(O)c1ccc(/C=C2/SC(=S)N(c3cccc(C(F)(F)F)c3)C2=O)cc1` [B1, 4-[4-Oxo-2-thioxo-3-(3-trifluoromethyl-phenyl)-thiazolidin-5-ylidenemethyl]-benzoic acid], the “Effect of CFTR inhibitors on forskolin-stimulated swelling” value [1, 8] is listed as “reduced”, the Ki [2] is listed as 300 nM and the Onset of inhibition ([2]; some cell types (eg. T84 cells), requiring prolonged incubation) is listed as “Slow onset of inhibition”.

For `O=C(CNc1ccc2ccccc2c1)N/N=C/c1cc(Br)c(O)c(Br)c1O` [B2, (Naphthalen-2-ylamino)-acetic acid (3,5-dibromo-2,4,- dihydroxy-benzylidene)-hydrazide], the “Effect of CFTR inhibitors on forskolin-stimulated swelling” value [1, 8] was “reduced”.

In the case of `Cc1ccc(S(=O)(=O)NC(=O)Nc2ccc([N+](=O)[O-])cc2)cc1` [B3, Diarylsulfonyl- urea], the Ki [2] is listed as > 100000 nM.

In the case of `Cc1ccc(C2Nc3ccccc3-n3c(-c4ccccc4)c4c(=O)n(C)c(=O)n(C)c4c32)o1` (centres unmarked) [B6, 7,9-dimethyl-11-phenyl-6-(5-methylfuran-2-yl)-5,6-dihydro-pyrimido-[4′,5′-3,4]pyrrolo[1,2-a]quinoxaline-8,10-(7H,9H)-dione], the Ki [2] is listed as 90 nM.

In the case of `O=C1/C(=C/c2ccc(-c3nn[nH]n3)cc2)SC(=S)N1c1cccc(C(F)(F)F)c1` [B7, 5-[[4-(2h-tetrazol-5-yl)phenyl]methylene]-2-thioxo-3-[3-(trifluoromethyl)phenyl]-4-thiazolidinone], the “Water solubility relative to Inh.-172” value [3] is listed as “more water soluble than Inh.-172” and the Ki [2] is listed as ~1000 nM.

In the case of `O=C(O)c1ccc(/C=C2\SC(=O)N(c3cccc(C(F)(F)F)c3)C2=O)cc1` [B8, 4-[[3-[3-(trifluoromethyl)phenyl]-2,4-dioxo-5-thiazolidinyli-dene]methyl]benzoic acid], the “Water solubility relative to Inh.-172” value [3] is given as “more water soluble than Inh.-172” and the Ki [2] is given as ~1000 nM.

In the case of `COc1ccc2nc(Nc3nc(O)cc(CSc4nc5ccccc5[nH]4)n3)nc(C)c2c1` [C1, 6-(1H-Benzoimidazol-2-ylsulfanyl-methyl)-2-(6-methoxy-4-methyl-quinazolin-2-ylamino)-pyrimidin-4-ol], the “Potency: Ks” value [4] is listed as “Reference #** 11 Potency: Ks = 3 microM Solvent: DMSO Hints For Use: M.W.: 445.5”.

For `COc1ccc(S(=O)(=O)N2CCN(C(C)c3nc(OC4CCCCC4)c4ccccc4n3)CC2)cc1` (centres unmarked) [C3, Cyclohexyloxy-2-{1-[4-(4-methoxy-benzensulfonyl)-piperazin-1-yl]-ethyl}-quinazoline], the EC50 [4] is listed as 2000 nM.

For `COc1ccc(Cl)cc1Nc1nc(-c2sc(NC(=O)c3ccccc3)nc2C)cs1` [C4, N-[2-(5-Chloro-2-methoxy-phenylamino)-4′-methyl-[4,5′]bithiazolyl-2′-yl]-benzamide], the EC50 [4] is given as 2000 nM.

For `Cc1cc(C)c2c(C)cc(Nc3ccccc3)nc2c1` [C5, 4,5,7-trimethyl N-phenylquinolin-2-amine], the EC50 [4] is given as 13000 nM.

For `Cc1cc(Nc2ccc(Br)cc2)nc2ccccc12` [C6, N-(4-bromophenyl)-4-methylquinolin-2-amine], the EC50 [4] is listed as 8000 nM.

In the case of `O=S(=O)(c1ccc(Cl)cc1)N1CCN(c2ccnc3cc(Cl)ccc23)CC1` [C9, 7-chloro-4-(4-(4-chlorophenylsul-fonyl)piperazin-1-yl)quinoline], the EC50 [4] is given as < 1000 nM.

For `O=S(=O)(c1ccccc1)N1CCN(c2ccnc3cc(Cl)ccc23)CC1` [C10, 7-chloro-4-(4-(phenylsulfonyl)piperazin-1-yl)quinoline], the EC50 [4] is listed as > 100000 nM.

In the case of `O=C(N/N=C\c1ccc(O)c(O)c1)c1cc2ccccc2cc1O` [C11, (Z)-N′-(3,4-dihydroxyben-zylidene)-3-hydroxy-2-naphtho-hydrazide], the EC50 [4] is given as 10000 to 20000 nM.

For `Cc1ccc(-c2csc(Nc3ccc(F)cc3)n2)cc1` [C12, N-(4-fluorophenyl)-4-p-tolylthiazol-2-amine], the EC50 [4] is listed as 5000 nM.

For `CC(=O)c1cccc(Nc2nc(-c3sc(NC(=O)c4ccccc4)nc3C)cs2)c1` [C13, N-(2-(3-acetylphenyl-amino)-4′-methyl-4,5′-bithiazol-2′-yl)benzamide], the EC50 [4] is given as 2000 nM.

In the case of `COc1ccccc1Nc1ncc(-c2sc(NC(=O)c3ccccc3)nc2C)s1` [C14, N-(2′-(2-methoxyphenylamino)-4-methyl-5,5′-bithiazol-2-yl)benzamide], the EC50 [4] is listed as 7000 nM.

In the case of `C=Cc1ccc(-c2csc(Nc3ccccc3)n2)cc1` [C15, N-phenyl-4-(4-vinylphenyl) thiazol-2-amine], the EC50 [4] is listed as 16000 nM.

In the case of `COc1ccc2nc(Nc3nc(=O)c(C)c(C)[nH]3)nc(C)c2c1` [C16, 2-(6-methoxy-4-methylquina-zolin-2-ylamino)-5,6-dimethylpyrimi-din-4(1H)-one], the EC50 [4] is given as 15000 nM.

For `COc1ccc(Cl)cc1Nc1nc(-c2sc(NC(=O)C(C)(C)C)nc2C)cs1` [C17, N-(2-(5-chloro-2-methoxyphenylamino)-4′-methyl-4,5′-bithiazol-2′-yl)pivalamide], the EC50 [4] is listed as 1000 to 2000 nM.

In the case of `O=C(Nc1ncc(C(c2ccccc2Cl)N2CCC(O)C2)s1)C1(c2ccc3c(c2)OCO3)CC1` (centres unmarked) [C18, 1-(benzo[d][1,3]di-oxol-5-yl)-N-(5-((2-chlorophenyl)(3-hydroxy-pyrrolidin-1-yl)methyl)thiazol-2-yl)cyclopropane carboxamide], the “Potency: Ks” value [4] is listed as “Reference # 24 Name: CF-106951 Potency Ks ~0.6 microM Solvent: DMSO Hints for use: Use at 3 to 6 microM for maximum effect. M.W. 497.99”.

For `Cc1ccc(O)c(-c2cc(-c3ccccc3)[nH]n2)c1` [P1, 4-Methyl-2-(5-phenyl-1H-pyrazol-3-yl)-phenol], the “Potency: Ks” value ([5]; CFTR potentiator) is listed as “Reference #**12 & 15 Name: VRT-532 Potency: Ks 3 to 5 microM Solvent: DMSO Hints For Use: M.W.: 250”.

For `CC(C)c1ccc(NC(=O)C(c2ccccc2)N(C)C(=O)Cc2c[nH]c3ccccc23)cc1` (centres unmarked) [P2, 2-[(2-1H-lndol-3-yl-acetyl)-methyl-amino]-N-(4-isopropyl-phenyl)-2-phenyl-acetamide], the “Potency: Ks” value ([5]; CFTR potentiator) is given as “Reference #** 4 Name: PG-01 Potency:Ks = 300 nM Solvent: DMSO Hints For Use: M.W.: 439.5”.

In the case of `CCN(c1ccccc1)S(=O)(=O)c1ccc2[nH]cc(C(=O)NCc3ccccc3OC)c(=O)c2c1` [P3, 6-(Ethyl-phenyl-sulfonyl)-4-oxo-1,4-dihydro-quinoline-3-carboxylic acid 2-methoxy-benzylamide], the “Potency: Ks” value ([5]; CFTR potentiator) is listed as “Reference #** 4 Name: SF-03 Potency: Ks = 30 nM Solvent: DMSO Hints For Use: M.W.: 491.6”.

For `O=c1[nH]c2cc(C(F)(F)F)ccc2n1-c1cccc(Cl)c1` [P4, 1-(3-chlorophenyl)-5-trifluoromethyl-3-hydrobenzi-midazol-2-one], the “Potency: Ks” value ([5]; CFTR potentiator) is listed as “Reference #** 5 Name: UCCF-853 Potency: Ks = 3 microM Solvent: DMSO Hints For Use: M.W.: 312.7”.

In the case of `NC(=O)c1c(NC(=O)c2ccccc2Cl)sc2c1CCCC2` [P5, 2-(2-Chloro-benzoylamino)-4,5,6,7-tetrahydro-benzo[b] thiophene-3-carboxylic acid amide], the “Potency: Ks” value ([5]; CFTR potentiator) is given as “Reference #** 6 Name: dF508act-02 Potency: Ks = 70 nM Solvent: DMSO Hints For Use: M.W.: 334.8”.

In the case of `O=C1c2c(O)cc(O)cc2OCC1c1ccc(O)cc1` (centres unmarked) [P6, 5,7,Dihydroxy-3-(4-hydroxy-phenyl)-chroman-4-one], the “Potency: Ks” value ([5]; CFTR potentiator) is listed as “Reference #** 8 Name: Genistein (discontinued— available from Sigma #G6649) Potency: Ks = 10 to 30 microM Solvent: DMSO” and the “Organoid swelling on compound addition” value [6] is listed as “rapid organoid swelling”.

For `O=C1Cc2cc(C(F)(F)F)ccc2N1c1cc(Cl)ccc1O` [P7, 1-(5-Chloro-2-hydroxy-phenyl)-5-trifluoromethyl-1,3-dihydro-indol-2-one], the EC50 ([5]; CFTR potentiator, read-out: Potency: EC50) is listed as 3000 nM and the “Activity in excised patches” value ([5]; excised patches) is listed as “Does not work in excised patches”.

For `O=c1cc(-c2ccncc2)oc2c1ccc1ccccc12` [P8, 4-(4-Oxo-4H-benzo[h]chromen-2-yl)-pyridinium; bisulfate], the “Potency: Ks” value ([5]; CFTR potentiator) is listed as “Reference #** 9 and 10 Potency: Ks = 2 microM Solvent: DMSO Hints For Use: M.W.: 371.4”.

For `C#CCCc1nn(-c2ccccc2)c(OC)c1C=O` [P9, 3-But-3-ynyl-5-methoxy-1-phenyl-1H-pyrazole-4-carbaldehyde], the “Potency: Ks” value ([5]; CFTR potentiator) is given as “Reference #** 10 Potency: Ks = 10 microM Solvent: DMSO Hints For Use: M.W.: 254.3”.

In the case of `ClCc1cc(-c2ccccc2OCc2ccccc2)no1` [P10, 3-(2-Benzyloxy-phenyl)-5-chloromethyl-isoxazole], the “Potency: Ks” value ([5]; CFTR potentiator) is listed as “Reference #** 10 Potency: Ks >50 microM Solvent: DMSO Hints For Use: M.W.: 299.8”.

With `NCCc1ccc(O)c(O)c1` [dopamine] the “Organoid swelling on compound addition” value [6] was “forskolin-like swelling”.

With `CNC[C@H](O)c1ccc(O)c(O)c1` [epinephrine] the “Organoid swelling on compound addition” value [6] was “forskolin-like swelling”.

For `C=C[C@@]1(C)CC(=O)[C@]2(O)[C@@]3(C)[C@@H](O)CCC(C)(C)[C@@H]3[C@H](O)[C@H](OC(C)=O)[C@@]2(C)O1` [forskolin, (3R,4aR,5S,6S,6aS,10S,10aR,10bS)-6,10,10b-trihydroxy-3,4a,7,7,10a-pentamethyl-1-oxo-3-vinyldodecahydro-1H-benzo[f]chromen-5-yl acetate], the “Organoid swelling induced by stimulus” value [1, 8] was “rapid forskolin-stimulated swelling”, the “Increase in organoid size” value ([1]; human organoids, in the space of 120 minutes (FIG. 8)) was “more than double in size” and the “Organoid swelling on forskolin addition” value [7] was “rapid expansion of the lumen and total organoid surface area; also recorded: dose-dependent relation between forskolin and increase of surface area over time”.

In the case of `CC(NCCc1ccc(O)cc1)C(O)c1ccc(O)cc1` (centres unmarked) [ritodrine], the “Organoid swelling on compound addition” value [6] is reported as “forskolin-like swelling”.

In the case of `CC(C)(C)NCC(O)c1ccc(O)c(CO)c1` (centres unmarked) [salbutamol], the “Organoid swelling on compound addition” value [6] is reported as “forskolin-like swelling”.

With cholera toxin the “Increase in organoid size” value [1] was “more than double in size”, the “Organoid swelling induced by stimulus” value [1] was “induce swelling” and the “Time course of swelling response” value [1] was “delayed compared to forskolin”.

Source: patent US11035852B2, “Identifying drug candidates for treating polycystic kidney disease using organoids generated from primary cells” (UMC Utrecht Holding B.V., priority 2011, dated 2021)
